Results on 26 compounds are retold here after patent US4778796A, “ω-(3-pyridyl)alkenamide derivatives and anti-allergenic pharmaceutical compositions containing same” (Dainippon Pharmaceutical Co., Ltd., priority 1985, dated 1988).

In test [1] the test system is passive cutaneous anaphylaxis (PCA). Nature of the test: Inhibitory effect on passive cutaneous anaphylaxis (PCA) in rats. The class given is in vivo, rat (male Wistar). The settings on record: Rattus norvegicus; 20 mg/kg, oral, 1 hour before antigen challenge; read-out: Inhibition (PCA in rats). The method, then: (1) Inhibitory effect on passive cutaneous anaphylaxis (PCA) in rats:
This test was carried out by the method of Perper et al. [cf.
Male Wistar rats (130-180 g) were injected with 0.1 ml of a dilute solution of mouse antiserum to egg albumin in two sites of the shaved ventral skin. Forty-eight hours later each rat was challenged by an intravenous injection of 2 mg of the antigen together with 1 ml of a 0.5% Evan's blue saline solution. The rats were sacrificed 30 minutes after the challenge. The area of the blueing lesions was measured on the undersurface of the skin. The average value of the two lesions of each rat was regarded as the response of the rat. Test compounds in a dose of 20 mg/kg, dissolved or suspended in a 0.5% aqueous tragacanth solution, were administered orally 1 hour before the antigen challenge. The inhibitory rate was determined by comparing the responses of the rats given each test compound with those of the rats given only a 0.5% aqueous tragacanth solution. Each group of 3 rats was used for each test compound. The mouse antiserum to egg albumin was produced by the method of Levine and Vaz [cf. Int. Arch. Allergy Appl.

Test [2] has as its system experimental asthma. As to the kind of experiment: Inhibitory effect on experimental asthma in rats. The class given is in vivo, rat (male Wistar). The settings on record: Rattus norvegicus, po, 1 hour before antigen challenge. The method, then:
(2) Inhibitory effect on experimental asthma in rats: This test was carried out by the method of Church and Miller [cf. Brit. […] Male Wistar rats (200-250 g) were sensitized by an intraperitoneal injection of 1 ml of a 0.01% egg albumin solution containing 1 mg of Al(OH)3. Two weeks later, the rats were anesthetized with 1.3 g/kg of urethane. The trachea and jugular vein were cannulated. Respiratory volume and velocity were measured by attaching one end of the tracheal cannula to respiratory volume meter connected to a carrier amplifier and an integrator. The rats were challenged by an intravenous injection of 4 mg/kg of egg ablumin 30 minutes after the anesthesia. Test compounds, dissolved or suspended in a 0.5% aqueous tragacanth solution, were administered orally 1 hour before the antigen challenge. Each group of 4 rats was used for each dose of the test compound. ED50 values were calculated from the best fit linear regression line of inhibitory rates of respiratory volume and velocity in each dose.

Test [3] deals with histamine-induced contraction of isolated guinea pig trachea. Nature of the test: Inhibitory effect on histamine-induced contraction of isolated guinea pig trachea. Also noted: species or system guinea pig (male Hartley). The method, then:
(2) Inhibitory effect on histamine-induced contraction of isolated guinea pig trachea:
Male Hartley guinea pigs (400-700 g) were used. Zig-zag strips of guinea pig trachea were prepared by the method of Emmerson and Mackay [cf. J. Pharm. […] Dose-response curves for histamine were obtained before and 5 minutes after the addition of test compounds. Inhibitory rate was calculated from contraction heights in 3×10^-5 M of histamine without vs. with test compound.

Test [4] deals with T1, 5-lipoxygenase (Cavia porcellus, UniProt A0A286X958).
T1 construct: The cytosol fraction of peritoneal exudate cells from male Hartley guinea pigs (400-700 g) was used as 5-lipoxygenase; from tissue; host or cells: cytosol fraction of peritoneal exudate cells (leukocytes) of male Hartley guinea pigs
T1 sequence (A0A286X958 1-674): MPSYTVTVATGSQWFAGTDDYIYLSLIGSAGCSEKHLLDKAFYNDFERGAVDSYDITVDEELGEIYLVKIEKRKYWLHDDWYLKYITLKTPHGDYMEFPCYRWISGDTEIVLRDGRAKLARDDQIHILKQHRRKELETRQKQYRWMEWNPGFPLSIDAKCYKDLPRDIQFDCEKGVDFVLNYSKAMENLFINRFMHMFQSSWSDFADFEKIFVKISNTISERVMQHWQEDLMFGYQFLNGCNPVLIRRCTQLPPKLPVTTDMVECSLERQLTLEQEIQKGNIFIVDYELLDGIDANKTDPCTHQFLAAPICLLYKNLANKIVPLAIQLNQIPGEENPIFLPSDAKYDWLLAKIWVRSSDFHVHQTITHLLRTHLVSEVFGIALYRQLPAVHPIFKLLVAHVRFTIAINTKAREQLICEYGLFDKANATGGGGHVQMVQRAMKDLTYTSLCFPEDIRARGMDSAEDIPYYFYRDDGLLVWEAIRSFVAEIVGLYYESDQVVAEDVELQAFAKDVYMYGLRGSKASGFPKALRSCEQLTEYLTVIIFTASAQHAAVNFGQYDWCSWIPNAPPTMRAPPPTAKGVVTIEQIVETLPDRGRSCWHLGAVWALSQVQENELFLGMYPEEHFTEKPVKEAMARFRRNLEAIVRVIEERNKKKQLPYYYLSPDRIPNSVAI
As to the kind of experiment: Inhibitory effect on 5-lipoxygenase activity in guinea pig leukocytes. The test is classed as biochemical, guinea pig (male Hartley). The settings on record: 10^-5 M; read-out: 5-Lipoxygenase inhibit. activity, Inhibition. The method, then:
(1) Inhibitory effect on 5-lipoxygenase activity in guinea pig leukocytes:
This test was carried out by the method of Miyamoto and Obata (cf. "Perspectives in Prostaglandin Research," ed. by Y. Shiokawa et al., Excepta Medica, Amsterdam-Oxford-Princeton, 1983, p78) with minor modifications.
The cytosol fraction of peritoneal exudate cells from male Hartley guinea pigs (400-700 g) was used as 5-lipoxygenase. The standard reaction mixture contained 50 mM potassium phosphate buffer, 1 mM CaCl2, 1 mM glutathione, 1 mM adenosine triphosphoric acid, 10 μM indomethacin and the enzyme. The mixture was incubated for 5 minutes at 30° C. after addition of [1-^14 C]arachidonic acid (0.02 μCi). The reaction was terminated by addition of 0.6 ml of the cold organic solvents (diethyl ether/methanol/0.2M citric acid=30/4/1). The organic layer (300 μl) was applied onto a precoated silica gel 60F254 glass plate (E. Merck, West Germany). Radioactivity on the plate was monitored by a radiochromatogram scanner (Packard, U.S.A.). 5-Lipoxygenase activity was calculated according to the following equation. [formula]
The effects of the test compounds were expressed in terms of percent inhibition.

The subject of test [5] is contact hypersensitivity to oxazolone. As to the kind of experiment: Inhibitory effect on contact hypersensitivity to oxazolone in mice. Particulars: topical, 0.3 mg/ear; 24 hours after challenge. The test is classed as in vivo, mouse (male ICR). The method, then: (3) Inhibitory effect on contact hypersensitivity to oxazolone in mice:
This test was carried out by the method of Evans et al. [cf. Brit.
Male ICR mice (18-20 g) were used. The abdominal region of the mice was carefully clipped with an electric clipper, and 0.1 ml of a 0.5 w/v % oxazolone solution in absolute ethanol was gently rubbed into the clipped area. Five days after the sensitization 20 μl of a 0.5 w/v % oxazolone solution in acetone or chloroform, or the solution containing test compound was applied to both sides of the right ear. The left ear was not treated. Twenty-four hours after the challenge, the animals were sacrificed with diethyl ether. The circular parts (5.5 mm in diameter) of both ears were removed by punching and then weighed. The inhibitory rate was determined by comparing the ear swelling of the mice treated with oxazolone containing test compound with that of the mice treated with oxazolone. Each group of 8 mice was used for each dose of the test compound.

Like-named read-outs stand apart in the source and are kept apart here.

In general, ED50 refers to the dose at which the effect has come halfway, by size or by number of responders. Usually IC50 stands for the midpoint of a concentration-inhibition curve. As usually defined, the inhibition is the change of the read-out against control, counted positive when it falls.

On to `O=C(C=Cc1cccnc1)NCCCCN1CCN(C(c2ccccc2)c2ccccc2)CC1` [Example 1, N-[3-(3-pyridyl)acryloyl]-4-(4-diphenylmethyl-1-piperazinyl)butylamine], for which, in test [1], the inhibition in vivo at 20 mg/kg was determined as 62.3%. Also, the ED50 in test [2] (respiratory velocity, read-out: ED50, respiratory velocity) is 14.1 mg/kg; in test [2] (respiratory volume, read-out: ED50, respiratory volume), 13.3 mg/kg. Also, the IC50 in test [3] (3×10^-5 M histamine, isolated guinea pig trachea, read-out: Anti-hist. activity IC50) was found to be 960 nM. In addition, the “antihistamine activity (in words)” value in test [3] (compared with ketotifen fumarate) was “potent antihistamine activity, though fairly inferior to that of ketotifen fumarate”.

For `O=C(C=Cc1cncc(F)c1)NCCCCN1CCN(C(c2ccccc2)c2ccccc2)CC1` [Example 3, N-[3-(5-fluoro-3-pyridyl)acryloyl]-4-(4-diphenylmethyl-1-piperazinyl)butylamine], the inhibition in vivo at 20 mg/kg in test [1] was 65%.

For `CC/C(=C\c1cccnc1)C(=O)NCCCCN1CCN(C(c2ccccc2)c2ccccc2)CC1` [Example 5, N-[3-(3-pyridyl)-2-ethylacryloyl]-4-(4-diphenylmethyl-1-piperazinyl)butylamine sesquifumarate], the inhibition in vivo at 20 mg/kg in test [1] is 67.8%.

Turning to `O=C(C=Cc1cccnc1)NCCCCN1CCCN(C(c2ccccc2)c2ccccc2)CC1` [Example 6, N-[3-(3-pyridyl)acryloyl]-4-(4-diphenylmethyl-1-homopiperazinyl)butylamine1/4 hydrate], the inhibition in vivo at 20 mg/kg in test [1] is 70%.

Consider `O=C(C=Cc1ccccn1)NCCCCN1CCN(C(c2ccccc2)c2ccccc2)CC1` [Example 11], for which the inhibition at 10 µM in test [4] is 59.6%.

On to `Cc1ccc(C=CC(=O)NCCCCCN2CCN(C(c3ccccc3)c3ccccc3)CC2)cn1` [Example 15], for which the inhibition at 10 µM in test [4] is 48.6%.

On to `Cc1ccc(O)c(C=CC(=O)NCCCCN2CCN(C(c3ccccc3)c3ccccc3)CC2)n1` [Example 20], for which the inhibition at 10 µM in test [4] was 68.6%.

For `COc1ccc(C=CC(=O)NCCCCN2CCN(C(c3ccccc3)c3ccccc3)CC2)cn1` [Example 25], the inhibition at 10 µM in test [4] worked out at 66.2%.

In the case of `O=C(C=Cc1ccc(Oc2cccc(F)c2)nc1)NCCCCN1CCN(C(c2ccccc2)c2ccccc2)CC1` [Example 29], the inhibition in vivo at 20 mg/kg in test [1] is 60.7%.

In the case of `O=C(C=Cc1ccc(Cl)nc1)NCCCCN1CCN(C(c2ccccc2)c2ccccc2)CC1` [Example 37], the inhibition at 10 µM in test [4] amounted to 54.6%.

Take `Cc1ncc(C=CC(=O)NCCCCN2CCN(C(c3ccccc3)c3ccccc3)CC2)c(CO)c1O` [Example 38, N-[3-(5-hydroxy-4-hydroxymethyl-6-methyl-3-pyridyl)acryloyl]-4-(4-diphenylmethyl-1-piperazinyl)butylamine]: in test [5], the “% Inhibition of ear swelling” value is 83.8%. The inhibition at 10 µM in test [4] was found to be 72.7%.

As to `O=C(C=Cc1ccc(O)nc1)NCCCCN1CCN(C(c2ccccc2)c2ccccc2)CC1` [Example 44], the inhibition at 10 µM in test [4] came to 45.5%.

As for `O=C(C=Cc1cncc(Cl)c1)NCCCCN1CCN(C(c2ccccc2)c2ccccc2)CC1` [Example 47], the inhibition in vivo at 20 mg/kg in test [1] was 66.4%.

With `Cc1ccc(C(c2ccccc2)N2CCN(CCCCNC(=O)C=Cc3ccc(C)nc3)CC2)cc1` (centres unmarked) [Example 48], in test [1], the inhibition in vivo at 20 mg/kg stood at 73.9%.

As to `Cc1ccc(C=CC(=O)NCCCCN2CCN(C(c3ccccc3)c3ccccc3)CC2)c(C)n1` [Example 50], the inhibition in vivo at 20 mg/kg in test [1] came out at 66.8%. In addition, the inhibition at 10 µM in test [4] is 61.2%.

As for `Cc1ncccc1C=CC(=O)NCCCCN1CCN(C(c2ccccc2)c2ccccc2)CC1` [Example 53], the inhibition in vivo at 20 mg/kg in test [1] came out at 68.8%.

In the case of `Cc1ccc(C(c2ccccc2)N2CCN(CCCCNC(=O)C=Cc3cccnc3)CC2)cc1` (centres unmarked) [Example 58], in test [1], the inhibition in vivo at 20 mg/kg came out at 82.9%.

Regarding `O=C(C=Cc1cccnc1)NCCCCN1CCN(C(c2ccc(F)cc2)c2ccc(F)cc2)CC1` [Example 62], in test [1], the inhibition in vivo at 20 mg/kg came out at 56.1%.

With `O=C(C=Cc1cccnc1)NCCCCN1CCN(C(c2ccccc2)c2ccc(Br)cc2)CC1` (centres unmarked) [Example 64], the inhibition in vivo at 20 mg/kg in test [1] turned out to be 55.8%.

As to `C/C(=C\c1cccnc1)C(=O)NCCCCN1CCN(C(c2ccccc2)c2ccccc2)CC1` [Example 76], the inhibition in vivo at 20 mg/kg in test [1] was 78.9%. In test [5], the “% Inhibition of ear swelling” value is recorded as 65.8%. Moreover, in test [4], the inhibition at 10 µM stood at 43.5%.

As to `C/C(=C\c1ccc(C)nc1)C(=O)NCCCCN1CCN(C(c2ccccc2)c2ccccc2)CC1` [Example 77], the inhibition in vivo at 20 mg/kg in test [1] was found to be 58.2%.

With `O=C(NCCCCN1CCN(C(c2ccccc2)c2ccccc2)CC1)/C(=C/c1cccnc1)c1ccccc1` [Example 79], the inhibition in vivo at 20 mg/kg in test [1] is 58%.

`O=C(C=CC=Cc1cccnc1)NCCCN1CCN(C(c2ccccc2)c2ccccc2)CC1` [Example 84]: in test [4], the inhibition at 10 µM came to 60.3%.

For the compound `O=C(C=CC=Cc1cccnc1)NCCCCN1CCN(C(c2ccccc2)c2ccccc2)CC1` [Example 85], the inhibition in vivo at 20 mg/kg in test [1] came out at 66.4%.

`Cc1ccc(C=CC=CC(=O)NCCCCN2CCN(C(c3ccccc3)c3ccccc3)CC2)cn1` [Example 87]: the inhibition in vivo at 20 mg/kg in test [1] was 68.8%.

For the compound `O=C(C=Cc1cccnc1)NCC=CCN1CCN(C(c2ccccc2)c2ccccc2)CC1` [Example 90, N-[3-(3-pyridyl)acryloyl]-4-(4-diphenylmethyl-1-piperazinyl)-2-butenylamin], the inhibition in vivo at 20 mg/kg in test [1] turned out to be 83.3%. Further, the “% Inhibition of ear swelling” value in test [5] came out at 46.3%.
